From the NIST ThermoML archive (doi:10.1021/acs.jced.8b00132)
Several values for one entry are separate records, joined by “and”; a condition that tells them apart may be missing. Identical values can stand only once.

O=C(C(F)(F)C(F)(F)F)C(F)(C(F)(F)F)C(F)(F)F [dodecafluoro-2-methylpentan-3-one]
Conditions	thermal conductivity
359.78 K, 24942 kPa, Liquid, transient hot wire	0.06009 W/m/K
359.79 K, 91 kPa, Gas, transient hot wire	0.01762 W/m/K
359.79 K, 92 kPa, Gas, transient hot wire	0.01704 W/m/K
359.83 K, 255 kPa, Gas, transient hot wire	0.01639 W/m/K and 0.01638 W/m/K
359.85 K, 7097 kPa, Liquid, transient hot wire	0.05177 W/m/K
359.85 K, 7099 kPa, Liquid, transient hot wire	0.05171 W/m/K
359.89 K, 18005 kPa, Liquid, transient hot wire	0.05715 W/m/K
359.9 K, 18006 kPa, Liquid, transient hot wire	0.05719 W/m/K
359.92 K, 186 kPa, Gas, transient hot wire	0.01654 W/m/K and 0.01651 W/m/K
359.92 K, 3418 kPa, Liquid, transient hot wire	0.04946 W/m/K
359.93 K, 3420 kPa, Liquid, transient hot wire	0.04957 W/m/K
359.99 K, 11963 kPa, Liquid, transient hot wire	0.05432 W/m/K
360 K, 26 kPa, Gas, transient hot wire	0.01679 W/m/K
360.01 K, 26 kPa, Gas, transient hot wire	0.01682 W/m/K
360.01 K, 11965 kPa, Liquid, transient hot wire	0.05404 W/m/K
360.03 K, 353 kPa, Liquid, transient hot wire	0.0473 W/m/K
360.04 K, 353 kPa, Liquid, transient hot wire	0.0473 W/m/K
360.05 K, 352 kPa, Liquid, transient hot wire	0.04729 W/m/K and 0.0475 W/m/K
360.09 K, 92 kPa, Gas, transient hot wire	0.01711 W/m/K and 0.01617 W/m/K
360.11 K, 7096 kPa, Liquid, transient hot wire	0.05168 W/m/K
360.11 K, 7097 kPa, Liquid, transient hot wire	0.0517 W/m/K
360.19 K, 3417 kPa, Liquid, transient hot wire	0.04945 W/m/K
360.19 K, 3421 kPa, Liquid, transient hot wire	0.04947 W/m/K
360.32 K, 353 kPa, Liquid, transient hot wire	0.0473 W/m/K
360.33 K, 352 kPa, Liquid, transient hot wire	0.0473 W/m/K and 0.04729 W/m/K
360.33 K, 353 kPa, Liquid, transient hot wire	0.04728 W/m/K
360.34 K, 26 kPa, Gas, transient hot wire	0.01682 W/m/K and 0.01675 W/m/K
373.92 K, 307 kPa, Gas, hot wire	0.01816 W/m/K
373.92 K, 308 kPa, Gas, hot wire	0.01812 W/m/K
373.97 K, 206 kPa, Gas, hot wire	0.01727 W/m/K
373.97 K, 207 kPa, Gas, hot wire	0.0173 W/m/K
374 K, 102 kPa, Gas, hot wire	0.01713 W/m/K and 0.01722 W/m/K
374.03 K, 306 kPa, Gas, hot wire	0.01829 W/m/K and 0.01823 W/m/K
374.08 K, 25 kPa, Gas, hot wire	0.01652 W/m/K and 0.01647 W/m/K
374.1 K, 205 kPa, Gas, hot wire	0.01731 W/m/K
374.1 K, 206 kPa, Gas, hot wire	0.01733 W/m/K
374.14 K, 102 kPa, Gas, hot wire	0.01694 W/m/K and 0.01695 W/m/K
374.15 K, 305 kPa, Gas, hot wire	0.01837 W/m/K
374.17 K, 305 kPa, Gas, hot wire	0.01816 W/m/K
374.21 K, 25 kPa, Gas, hot wire	0.01648 W/m/K
374.22 K, 25 kPa, Gas, hot wire	0.01645 W/m/K
374.23 K, 205 kPa, Gas, hot wire	0.0174 W/m/K and 0.01741 W/m/K
374.28 K, 102 kPa, Gas, hot wire	0.01696 W/m/K
374.28 K, 304 kPa, Gas, hot wire	0.01841 W/m/K
374.28 K, 305 kPa, Gas, hot wire	0.01852 W/m/K
374.29 K, 102 kPa, Gas, hot wire	0.01693 W/m/K
374.35 K, 25 kPa, Gas, hot wire	0.01656 W/m/K and 0.01653 W/m/K
374.36 K, 203 kPa, Gas, hot wire	0.01755 W/m/K
374.37 K, 204 kPa, Gas, hot wire	0.01751 W/m/K
374.42 K, 102 kPa, Gas, hot wire	0.01695 W/m/K
374.42 K, 303 kPa, Gas, hot wire	0.01848 W/m/K and 0.01842 W/m/K
374.43 K, 102 kPa, Gas, hot wire	0.01693 W/m/K
374.49 K, 376 kPa, Gas, transient hot wire	0.01734 W/m/K
374.5 K, 25 kPa, Gas, hot wire	0.01656 W/m/K and 0.01659 W/m/K
374.5 K, 377 kPa, Gas, transient hot wire	0.01734 W/m/K
374.51 K, 202 kPa, Gas, hot wire	0.0176 W/m/K
374.51 K, 203 kPa, Gas, hot wire	0.01762 W/m/K
374.52 K, 308 kPa, Gas, transient hot wire	0.01738 W/m/K
374.53 K, 307 kPa, Gas, transient hot wire	0.01737 W/m/K
374.58 K, 101 kPa, Gas, hot wire	0.01698 W/m/K
374.59 K, 101 kPa, Gas, hot wire	0.01691 W/m/K
374.59 K, 207 kPa, Gas, transient hot wire	0.01758 W/m/K
374.6 K, 206 kPa, Gas, transient hot wire	0.01761 W/m/K
374.66 K, 25 kPa, Gas, hot wire	0.0166 W/m/K and 0.01657 W/m/K
374.69 K, 376 kPa, Gas, transient hot wire	0.01733 W/m/K
374.7 K, 376 kPa, Gas, transient hot wire	0.01734 W/m/K
374.74 K, 306 kPa, Gas, transient hot wire	0.01741 W/m/K
374.81 K, 206 kPa, Gas, transient hot wire	0.01763 W/m/K and 0.01767 W/m/K
374.92 K, 374 kPa, Gas, transient hot wire	0.01739 W/m/K
374.92 K, 375 kPa, Gas, transient hot wire	0.01742 W/m/K
374.97 K, 305 kPa, Gas, transient hot wire	0.0175 W/m/K
374.97 K, 306 kPa, Gas, transient hot wire	0.01752 W/m/K
375.05 K, 205 kPa, Gas, transient hot wire	0.01769 W/m/K
375.15 K, 373 kPa, Gas, transient hot wire	0.01743 W/m/K
375.15 K, 374 kPa, Gas, transient hot wire	0.01735 W/m/K
375.2 K, 304 kPa, Gas, transient hot wire	0.01738 W/m/K
375.21 K, 304 kPa, Gas, transient hot wire	0.01741 W/m/K
375.3 K, 204 kPa, Gas, transient hot wire	0.01791 W/m/K and 0.0176 W/m/K
375.4 K, 372 kPa, Gas, transient hot wire	0.01754 W/m/K
375.4 K, 373 kPa, Gas, transient hot wire	0.01755 W/m/K
375.47 K, 303 kPa, Gas, transient hot wire	0.01756 W/m/K
375.48 K, 303 kPa, Gas, transient hot wire	0.01757 W/m/K
375.57 K, 202 kPa, Gas, transient hot wire	0.01755 W/m/K
